Data set [1] in a line: Cytotoxicity against Rattus norvegicus (rat) F2408 cells after 24 hr by MTT assay. The following applies: F2408, 24 h. The format is cell-based.
A short description of data set [2]: Cytotoxicity against Rattus norvegicus (rat) 5RP7 cells after 24 hr by MTT assay. In kind it is functional, cell-based. Conditions: 5RP7, 24 h.
A short description of data set [3]: Cytotoxicity against Rattus norvegicus (rat) F2408 cells assessed as cell viability at 0.0128 ug/ml after 24 hr by MTT assay. The format is cell-based. Conditions: read-out: Activity. In general terms: Formazan colour is commonly taken as a measure of viable cells.
Data set [4] is described as follows: Cytotoxicity against Rattus norvegicus (rat) 5RP7 cells assessed as cell viability at 0.0128 ug/ml after 24 hr by MTT assay. The format is functional. Conditions: 5RP7, 24 h, read-out: Activity.
Data set [5] is described as follows: Cytotoxicity against Rattus norvegicus (rat) F2408 cells assessed as cell viability at 0.0256 to 0.064 ug/ml after 24 hr by MTT assay. The format is cell-based. The following applies: read-out: Activity.
The test system of data set [6] is 5RP7. Put plainly: Cytotoxicity against Rattus norvegicus (rat) 5RP7 cells at low concentration after 24 by MTT assay. In kind it is functional, cell-based.
Data set [7] in a line: Cytotoxicity against Rattus norvegicus (rat) F2408 cells at low concentration after 24 hr by MTT assay. In kind it is cell-based. The following applies: f2408, 24 h.
In data set [8] the test system is 5RP7. Put plainly: Cytotoxicity against Rattus norvegicus (rat) 5RP7 cells at high concentration after 48 hr by MTT assay. In kind it is functional, cell-based.
The nature of data set [9]: Cytotoxicity against Rattus norvegicus (rat) F2408 cells after 48 hr by MTT assay. The format is cell-based. The following applies: f2408, 48 h.
Data set [10] is described as follows: Cytotoxicity against Rattus norvegicus (rat) F2408 cells at 0.0256 ug/ml by MTT assay. The format is cell-based.
Data set [11] is described as follows: Cytotoxicity against Rattus norvegicus (rat) 5RP7 cells at 0.0128 ug/ml by MTT assay. The format is functional.
Data set [12] can be described thus: Cytotoxicity against Rattus norvegicus (rat) 5RP7 cells at 0.064 ug/ml by MTT assay. The format is functional.
The nature of data set [13]: Cytotoxicity against Rattus norvegicus (rat) F2408 cells at 0.0128 ug/ml by MTT assay. In kind it is cell-based.
Data set [14] is described as follows: Cytotoxicity against Rattus norvegicus (rat) 5RP7 cells at 0.0256 ug/ml by MTT assay. The format is functional.
The nature of data set [15]: Cytotoxicity against Rattus norvegicus (rat) F2408 cells at 0.064 ug/ml by MTT assay. In kind it is cell-based.

≈ marks a conversion by molar mass, not a printed value. Calls of active or inactive are those of the source. No cut-off for these calls is given here.

By IC50 is commonly meant the concentration that inhibits the measured activity by half. A lower IC50 goes with greater potency. Consider `Cc1ccc(-c2nc3n(c2-c2ccc(C)cc2)CCCS3)cc1`, for which the IC50 is 12 µg/mL (≈ 37.4 µM) in data set [1] and 4.6 µg/mL (≈ 14.4 µM) in [2]. In addition, the viability at 24 h, 0.0128 ug/ml in data set [3] amounted to 100%. In addition, the viability at 0.0128 µg/mL in data set [4] was found to be 87%. The viability at 24 h in [5] stood at 100%.

For `Cc1ccc(-c2nc3n(c2-c2ccc(C)cc2)CCS3)cc1`, the IC50 was found to be 15 µg/mL (≈ 49 µM) in data set [1] and 18 µg/mL (≈ 58.7 µM) in data set [2]. Further, the outcome with 5RP7 [6] was Active. For the same compound, the Activity entry in [7] was “Non-toxic”.

On to `c1ccc(-c2nc3n(c2-c2ccccc2)CCS3)cc1`, for which the outcome in the data set with 5RP7 [8] was Active. In addition, the concentration for half-maximal inhibition (IC50) in data set [1] came to 9.5 µg/mL (≈ 34.1 µM); in data set [2], 15 µg/mL (≈ 53.9 µM). For the same compound, the Activity result in data set [9] is “Toxic”.

For the compound `COc1ccc(-c2nc3n(c2-c2ccc(OC)cc2)CCS3)cc1`, the concentration for half-maximal inhibition (IC50) in data set [1] amounted to 29 µg/mL (≈ 85.7 µM); in data set [2] it was 22 µg/mL (≈ 65 µM). The result in the data set on 5RP7 [6] was Active. Moreover, the Activity result in data set [7] was “Non-toxic”.

Take `c1ccc(-c2nc3n(c2-c2ccccc2)CCCS3)cc1`: the Activity in data set [10] is on record as 21%; in data set [11], 30%; in data set [12], 21%; in data set [13], 20%; in data set [14], 28%; in data set [15], 18%. The IC50 in data set [1] came out at 10 µg/mL (≈ 34.2 µM); in [2], 2.9 µg/mL (≈ 9.92 µM).

(Values after ChEMBL document CHEMBL3046159, “Synthesis of some 3,4-disubstituted-6,7-dihydro-imidazo[2,1-b][1,3]thiazole and 3,4-disubstituted-7,8-dihydro-6H-imidazo[2,1-b][1,3]thiazine derivatives and evaluation of their cytotoxicities against F2408 and 5RP7 cells” (Med Chem Res, 2008).)
